Our source for the inhibition values is patent publication US9156837B2, “Heterocyclic compound” (Takeda Pharmaceutical Company Limited, priority 2011, dated 2015).

SMILES strings stand for the structures.

Experiment [1] deals with T1, RORγt (Homo sapiens, UniProt P51449).
T1 sequence (P51449 1-497 isoform P51449-2): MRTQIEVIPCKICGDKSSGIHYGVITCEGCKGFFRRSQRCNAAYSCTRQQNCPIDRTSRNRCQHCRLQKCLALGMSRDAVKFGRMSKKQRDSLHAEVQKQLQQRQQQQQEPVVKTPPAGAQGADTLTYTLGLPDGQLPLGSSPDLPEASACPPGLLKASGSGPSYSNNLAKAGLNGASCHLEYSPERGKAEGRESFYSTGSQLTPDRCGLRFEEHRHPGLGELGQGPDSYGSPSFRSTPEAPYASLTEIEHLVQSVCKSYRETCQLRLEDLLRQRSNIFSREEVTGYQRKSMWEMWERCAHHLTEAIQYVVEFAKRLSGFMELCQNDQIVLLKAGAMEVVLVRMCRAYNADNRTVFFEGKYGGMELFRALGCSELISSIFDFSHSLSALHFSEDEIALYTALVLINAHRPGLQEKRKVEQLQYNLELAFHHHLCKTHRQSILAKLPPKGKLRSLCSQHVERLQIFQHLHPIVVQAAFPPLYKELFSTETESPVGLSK
In words: RORγt binding test (TR-FRET, fluorescent-labeled cholesterol). The following applies: test compound 1 μM, histidine-tagged RORγt, read-out: binding inhibitory rate of fluorescent-labeled cholesterol to RORγt. As to the method: The binding activity of the test compound to RORγt was measured by a time resolved fluorescence resonance energy transfer method (TR-FRET) utilizing histidine-tagged RORγt, fluorescent-labeled cholesterol (BODIPY-cholesterol, AVIVA), and terbium-labeled anti-histidine tag antibody (Invitrogen). First, a test compound diluted with an assay buffer (20 mM Tris-HCl (pH 7.5), 100 mM NaCl, 1 mM DTT, 0.1% BSA) was added to a 384 well plate by 3 μL. Then, RORγt diluted with an assay buffer to 240 nM was added by 3 μL, after which fluorescent-labeled cholesterol diluted with the assay buffer to 12 μM was added by 3 μL, and the mixture was stood at room temperature for 20 min. Thereafter, a terbium-labeled anti-histidine tag antibody diluted with the assay buffer to 8 nM was added by 3 μL. The mixture was stood at room temperature for 20 min, and fluorescence intensity (excitation wavelength 320 nm, fluorescence wavelength 520 nm, delay time 100 microseconds) was measured by Envision (PerkinElmer).
The results (binding inhibitory rate of fluorescent-labeled cholesterol to RORγt at test compound 1 μM) measured by the above-mentioned method are shown in Table 2.
For orientation: TR-FRET usually uses a lanthanide donor and a delayed reading to cut background.

For experiment [2], the target named is T1, RORγt. In words: Cofactor recruitment test (Alpha Screen, biotinylated SRC-1 peptide). The experiment is classed as biochemical. The following applies: test compound 1 μM, RORγt and biotinylated SRC-1 peptide, read-out: signal value inhibitory rate. As for the experimental part:
Cofactor recruitment test was performed by Alpha Screen (Histidine Detection Kit, PerkinElmer) method. First, a test compound was diluted with an assay buffer (50 mM Tris-HCl (pH 7.5), 50 mM KCl, 1 mM DTT, 0.1% BSA) and added to a 384 well plate by 5 μL. Then, RORγt diluted with an assay buffer to 125 nM was added by 10 μL each, after which solutions of 25 nM biotinylated SRC-1 peptide (biotin-[…]), 12.5 μg/mL acceptor beads and 12.5 μg/mL donor beads prepared with the assay buffer were added by 10 μL each. The mixture was stood in a dark place for 1 hr, and the signal value was measured by Envision (PerkinElmer).

Experiment [3] deals with T1, RORγt. In words: Jurkat reporter test (human IL-17 ROR response element luciferase). The format is cell-based. To be noted: test compound 3 μM; Jurkat cells transfected with IL-17 ROR response element luciferase reporter and RORγt vector; cultured overnight; read-out: luminescence level inhibitory rate. As for the experimental part: The Jurkat cells used for the reporter test were cultured in a culture medium (RPMI (Invitrogen), 10% FCS (AusGeneX), 100 U/mL penicillin, 100 μg/mL streptomycin). On the day of the test, 4×10^7 cells were recovered by a centrifugal operation (1000 rpm, 5 min.) and suspended in PBS (phosphate buffered saline) (Invitrogen). Thereafter, the cells were recovered again by a centrifugal operation, and suspended in 2 mL of R buffer (NEON transfection kit, Invitrogen). Then, a reporter vector 53 μg wherein a human IL-17 ROR response element was inserted into the upstream of luciferase of pGL 4.28 (Promega), and a vector (27 μg) wherein RORγt sequence was inserted into the downstream of CMV promoter were added to the cell suspension. Gene transfer was performed by Electroporation apparatus (NEON, Invitrogen) under the conditions of pulse voltage 1350 V, interval 10 milliseconds, number of times 3. The cells after gene transfer were suspended in 40 mL of a reaction medium (RPMI, 10% Lipid reduced FCS (HyClone), 10 mM HEPES (pH 7.5), 100 U/mL penicillin, 100 μg/mL streptomycin, 5 μM lovastatin), and plated in a 96 well plate by 90 μL. A test compound diluted with the reaction medium was added by 10 μL, and the cells were cultured overnight in an incubator. Bright-Glo (Promega) was added by 100 μL, and the mixture was stirred at room temperature for 10 min, and the luminescence level was measured by Envision (PerkinElmer).
The results (luminescence level inhibitory rate at test compound 3 μM) measured by the above-mentioned method are shown in Table 4.

Experiment [4] concerns CD4 positive naive T cells (differentiation into Th17 cells). In words: Mouse Th17 cell differentiation induction test. The experiment is classed as cell-based. To be noted: 96 h; test compound 10 μM; BALB/c mouse CD4 positive naive T cells; 4 days; ELISA; read-out: inhibitory rate (IL-17A in culture supernatant, Th17 differentiation). As to the method:
CD4 positive naive T cells were collected from the spleen cells of BALB/c mice (female, 8-11w) using CD4+CD62L+ T Cell Isolation kit II (Miltenyi Biotec). The CD4 positive naive T cells were plated in a 96 well plate (3×10^5 cells/well), stimulated (37° C. for culture) with anti-mouse CD3ε antibody (10 μg/mL, solid phase) and anti-CD28 antibody (5 μg/mL) for 4 days in the presence of anti-IFN-γ antibody, anti-IL-4 antibody, anti-IL-2 antibody, IL-6, TGF-β and IL-23 to allow for differentiation into Th17 cells. The compound was dissolved in DMSO and then added. The cells were cultured under these conditions for 4 days, the concentration of IL-17A in the culture supernatant obtained by centrifugation was measured by ELISA, and differentiation of the Th17 cells was evaluated.

Experiment [5] concerns Peripheral blood mononuclear cells (PBMC). In words: Human PBMC IL17 production test. The format is cell-based. To be noted: 72 h; test compound 10 μM; human PBMC stimulated by anti-CD3/CD28 Dynabeads; 3 days; ELISA; read-out: inhibitory rate (IL-17A in culture supernatant, IL-17 production). As to the method: Peripheral blood mononuclear cells (PBMC) collected from human peripheral blood by a density gradient centrifugation method were stimulated by Dynabeads (registered trade mark; anti-CD3/CD28 antibody) and cultured at 37° C. for 3 days. The compound was dissolved in DMSO and then added. After culture for 3 days under such conditions, the concentration of IL-17A in the culture supernatant obtained by centrifugation was measured by ELISA, and the activity of the compound on IL-17 production was evaluated.

For the compound `CC(C)(C)n1ncc(-c2nc(CC(=O)NCC3CCOCC3)cs2)c1-c1ccc(F)cc1` [Example 14, 2-{2-[1-tert-butyl-5-(4-fluorophenyl)-1H-pyrazol-4-yl]-1,3-thiazol-4-yl}-N-(tetrahydro-2H-pyran-4-ylmethyl)acetamide], the inhibition at 1 µM stood at 92% at RORγt [1] and 109% on RORγt [2]. In addition, the inhibition at 3 µM at RORγt [3] came out at 81%. Also, in experiment [4], the inhibition at 10 µM was 77%.
`CN(Cc1ccncc1)C(=O)Cc1csc(-c2cnn(C(C)(C)C)c2-c2ccc(F)cc2)n1` [Example 18, 2-{2-[1-tert-butyl-5-(4-fluorophenyl)-1H-pyrazol-4-yl]-1,3-thiazol-4-yl}-N-methyl-N-(pyridin-4-ylmethyl)acetamide]: the values for the inhibition at 1 µM at RORγt [1] and at RORγt [2] were 96.1% and 102%, respectively. The inhibition at 3 µM on RORγt [3] worked out at 87.1%. Besides, the inhibition at 10 µM in experiment [4] was 96.3%.
Take `CC(C)(C)n1ncc(-c2nc(CC(=O)NCC3CCOCC3)cs2)c1-c1ccccc1` [Example 41]: the inhibition at 1 µM was determined as 94.6% at RORγt [1] and 101% at RORγt [2]. On RORγt [3], the inhibition at 3 µM is 82.1%. In addition, the inhibition at 10 µM in experiment [4] turned out to be 92.6%.
As to `CC(C)(C)n1ncc(-c2nc(CC(=O)NCC3CCOCC3)cs2)c1-c1ccc(C#N)cc1` [Example 43, 2-{2-[1-tert-butyl-5-(4-cyanophenyl)-1H-pyrazol-4-yl]-1,3-thiazol-4-yl}-N-(tetrahydro-2H-pyran-4-ylmethyl)acetamide], the results for the inhibition at 1 µM at RORγt [1] and at RORγt [2] were 98.3% and 101%, respectively. The inhibition at 3 µM on RORγt [3] amounted to 94.2%. The inhibition at 10 µM in experiment [4] turned out to be 78.6%.
As to `O=C(Cc1csc(-c2cnn(C3CCCCC3)c2-c2ccc(F)cc2)n1)NCC1CCOCC1` [Example 51, 2-{2-[1-cyclohexyl-5-(4-fluorophenyl)-1H-pyrazol-4-yl]-1,3-thiazol-4-yl}-N-(tetrahydro-2H-pyran-4-ylmethyl)acetamide], the values for the inhibition at 1 µM at RORγt [1] and at RORγt [2] were 95.3% and 78.6%, respectively. Also, the inhibition at 3 µM on RORγt [3] turned out to be 94.9%. Moreover, the inhibition at 10 µM in experiment [4] is 86%.
Regarding `CC(C)(C)n1ncc(-c2nc(CC(=O)NCc3cccnc3)cs2)c1-c1ccc(F)cc1` [Example 79, 2-{2-[1-tert-butyl-5-(4-fluorophenyl)-1H-pyrazol-4-yl]-1,3-thiazol-4-yl}-N-(pyridin-3-ylmethyl)acetamide], the inhibition at 1 µM at RORγt [1] was 95.4%; at RORγt [2], 99.8%. Moreover, the inhibition at 3 µM on RORγt [3] turned out to be 85.7%. In addition, the inhibition at 10 µM in experiment [4] was determined as 69%.
Turning to `CCCN(Cc1ccccc1)C(=O)Cc1csc(-c2cnn(C(C)(C)C)c2-c2ccc(F)cc2)n1` [Example 97, N-benzyl-2-{2-[1-tert-butyl-5-(4-fluorophenyl)-1H-pyrazol-4-yl]-1,3-thiazol-4-yl}-N-propylacetamide], the figures for the inhibition at 1 µM at RORγt [1] and on RORγt [2] were 87.3% and 98.8%, respectively. Besides, the inhibition at 3 µM on RORγt [3] amounted to 84.1%. Also, the inhibition at 10 µM in experiment [4] came to 95%.
Consider `CC(C)(C)n1ncc(-c2nc(CC(=O)NCC3CCOCC3)cs2)c1-c1ccc(Cl)cc1` [Example 128, 2-{2-[1-tert-butyl-5-(4-chlorophenyl)-1H-pyrazol-4-yl]-1,3-thiazol-4-yl}-N-(tetrahydro-2H-pyran-4-ylmethyl)acetamide], for which the inhibition at 1 µM turned out to be 97.8% on RORγt [1] and 101% on RORγt [2]. Further, the inhibition at 3 µM at RORγt [3] is 97.1%. In addition, the inhibition at 10 µM in experiment [4] turned out to be 97.7%.
With `CC(C)(C)n1ncc(-c2nc(CC(=O)NCC3CCOCC3)cs2)c1-c1cc2ccccc2s1` [Example 150, 2-{2-[5-(1-benzothiophen-2-yl)-1-tert-butyl-1H-pyrazol-4-yl]-1,3-thiazol-4-yl}-N-(tetrahydro-2H-pyran-4-ylmethyl)acetamide], the inhibition at 1 µM is 98.7% at RORγt [1] and 99.3% at RORγt [2]. In addition, at RORγt [3], the inhibition at 3 µM was found to be 98.4%. For the same compound, the inhibition at 10 µM was found to be 97.7% in experiment [4] and 92% in experiment [5].
For `COc1ccc(-c2c(-c3nc(CC(=O)NCC4CCOCC4)cs3)cnn2C(C)(C)C)cc1F` [Example 152, 2-{2-[1-tert-butyl-5-(3-fluoro-4-methoxyphenyl)-1H-pyrazol-4-yl]-1,3-thiazol-4-yl}-N-(tetrahydro-2H-pyran-4-ylmethyl)acetamide], the inhibition at 1 µM is 95.9% at RORγt [1] and 95.4% on RORγt [2]. For the same compound, at RORγt [3], the inhibition at 3 µM was found to be 96%. The inhibition at 10 µM in experiment [4] worked out at 91.2%; in experiment [5], 92%.
Take `CC(C)(C)n1ncc(-c2nc(CC(=O)NCc3ccc(-n4ccnc4)cc3)cs2)c1-c1ccc(F)cc1` [Example 170, 2-{2-[1-tert-butyl-5-(4-fluorophenyl)-1H-pyrazol-4-yl]-1,3-thiazol-4-yl}-N-[4-(1H-imidazol-1-yl)benzyl]acetamide]: the inhibition at 1 µM on RORγt [1] worked out at 86.5%; on RORγt [2], 100%. Also, the inhibition at 3 µM on RORγt [3] was determined as 94.4%.
